Assay results: ChEMBL document CHEMBL4673353, “Switching a Xanthine Oxidase Inhibitor to a Dual-Target Antagonist of P2Y and P2Y as an Oral Antiplatelet Agent with a Wider Therapeutic Window in Rats than Ticagrelor” (J Med Chem, 2020)

Experiments:
[1] = Acute toxicity in Kunming mouse assessed as increase in body weight at 2000 mg/kg, ig administered as single dose monitored every day up to14 days; format: organism-based; conditions: in vivo, po, 336 h, time 14 day
[2] = Stability of compound in simulated intestinal fluid assessed as parent compound remaining at 10 uM after 12 hrs by HPLC analysis relative to control
[3] = Cmax in male Sprague-Dawley rat at 10 mg/kg, po administered as single dose by LC-MS analysis; format: ADME, organism-based; design: route oral, dose 10 mg/kg; conditions: in vivo
CYP2C19 = CYP2C19 (Homo sapiens, UniProt P33261); assay: Inhibition of CYP2C19 in human liver microsomes at 10 uM using S-mephenytoin as substrate preincubated for 5 mins followed by NADPH generating system addition and measured after 120 mins by LC-MS/MS analysis relative to control; format: ADME; conditions: probe S-mephenytoin, time 125 min
[4] = Elimination half-life in male Sprague-Dawley rat at 10 mg/kg, po administered as single dose by LC-MS analysis; format: ADME, organism-based; conditions: in vivo, read-out: beta t1/2 (converted)
[5] = Acute toxicity in Kunming mouse assessed as behavioral abnormalities at 2000 mg/kg, ig administered as single dose monitored every day up to14 days; format: organism-based; conditions: in vivo, po, 336 h, time 14 day
[6] = Clearance in male Sprague-Dawley rat at 10 mg/kg, po administered as single dose by LC-MS analysis; format: ADME, organism-based; conditions: in vivo
CYP2D6 = CYP2D6 (Homo sapiens, UniProt P10635); assay: Inhibition of CYP2D6 in human liver microsomes at 10 uM using dextromethorphan as substrate preincubated for 5 mins followed by NADPH generating system addition and measured after 120 mins by LC-MS/MS analysis relative to control; format: ADME; conditions: probe dextromethorphan, time 125 min
CYP2E1 = CYP2E1 (Homo sapiens, UniProt P05181); assay: Inhibition of CYP2E1 in human liver microsomes at 10 uM using chlorzoxazone as substrate preincubated for 5 mins followed by NADPH generating system addition and measured after 120 mins by LC-MS/MS analysis relative to control; format: ADME; conditions: probe chlorzoxazone, time 125 min
[7] = Stability of compound in simulated gastric fluid assessed as parent compound remaining at 10 uM after 12 hrs by HPLC analysis relative to control
[8] = Tmax in male Sprague-Dawley rat at 10 mg/kg, po administered as single dose by LC-MS analysis; format: ADME, organism-based; conditions: in vivo
[9] = Metabolic stability of compound in human liver microsomes assessed as elimination half-life at 0.2 uM in presence of NADPH by LC-MS/MS analysis; format: ADME, Microsome; conditions: read-out: beta t1/2
[10] = Prodrug conversion in male Sprague-Dawley rat assessed as 1-[(4-Cyanobenzyl)oxy]-2-(3-cyanophenyl)-4-methyl-1H-imidazole-5-carboxylic acid formation at 10 mg/kg, po measured at 10 mins by LC-MS analysis; format: ADME, organism-based; conditions: in vivo
CYP3A4 = CYP3A4 (Homo sapiens, UniProt P08684); assay: Inhibition of CYP3A4 in human liver microsomes at 10 uM using testosterone as substrate preincubated for 5 mins followed by NADPH generating system addition and measured after 120 mins by LC-MS/MS analysis relative to control; format: ADME; conditions: probe testosterone, time 125 min
Plasma = assay: Antiplatelet activity in rabbit platelet-rich plasma assessed as inhibition of ADP-induced platelet aggregation preincubated for 5 mins followed by ADP addition measured every 1 min for up to 6 mins by microplate reader analysis; format: functional, cell-free; conditions: Oryctolagus cuniculus
CYP1A2 = target: T1, CYP1A2 (Homo sapiens, UniProt P05177); assay: Inhibition of CYP1A2 in human liver microsomes at 10 uM using phenacetin as substrate preincubated for 5 mins followed by NADPH generating system addition and measured after 120 mins by LC-MS/MS analysis relative to control; format: ADME; conditions: probe phenacetin, time 125 min
T1 sequence (P05177 whole entry): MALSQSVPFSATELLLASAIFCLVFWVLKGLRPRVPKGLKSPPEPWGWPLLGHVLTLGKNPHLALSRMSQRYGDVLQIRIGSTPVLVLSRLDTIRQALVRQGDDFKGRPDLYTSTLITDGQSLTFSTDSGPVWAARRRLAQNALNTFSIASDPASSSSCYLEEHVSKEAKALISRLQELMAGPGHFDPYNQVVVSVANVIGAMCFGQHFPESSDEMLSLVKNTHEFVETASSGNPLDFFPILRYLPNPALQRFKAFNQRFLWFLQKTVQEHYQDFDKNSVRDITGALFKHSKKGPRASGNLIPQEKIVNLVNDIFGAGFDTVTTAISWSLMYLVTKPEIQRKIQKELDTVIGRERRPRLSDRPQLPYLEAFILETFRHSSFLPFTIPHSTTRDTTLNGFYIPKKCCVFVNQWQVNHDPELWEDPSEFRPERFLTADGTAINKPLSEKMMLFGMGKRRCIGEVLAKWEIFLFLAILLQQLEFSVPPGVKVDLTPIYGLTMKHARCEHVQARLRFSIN

[11] = AUC (0 to infinity) in male Sprague-Dawley rat at 10 mg/kg, po administered as single dose by LC-MS analysis; format: ADME, organism-based; design: route oral, time infinity, dose 10 mg/kg; conditions: in vivo
[12] = Metabolic stability of compound in rat liver microsomes assessed as elimination half-life at 0.2 uM in presence of NADPH by LC-MS/MS analysis; format: ADME, Microsome; conditions: read-out: beta t1/2
CYP2A6 = target: T2, CYP2A6 (Homo sapiens, UniProt P11509); assay: Inhibition of CYP2A6 in human liver microsomes at 10 uM using coumarin as substrate preincubated for 5 mins followed by NADPH generating system addition and measured after 120 mins by LC-MS/MS analysis relative to control; format: ADME; conditions: probe coumarin, time 125 min
T2 sequence (P11509 whole entry): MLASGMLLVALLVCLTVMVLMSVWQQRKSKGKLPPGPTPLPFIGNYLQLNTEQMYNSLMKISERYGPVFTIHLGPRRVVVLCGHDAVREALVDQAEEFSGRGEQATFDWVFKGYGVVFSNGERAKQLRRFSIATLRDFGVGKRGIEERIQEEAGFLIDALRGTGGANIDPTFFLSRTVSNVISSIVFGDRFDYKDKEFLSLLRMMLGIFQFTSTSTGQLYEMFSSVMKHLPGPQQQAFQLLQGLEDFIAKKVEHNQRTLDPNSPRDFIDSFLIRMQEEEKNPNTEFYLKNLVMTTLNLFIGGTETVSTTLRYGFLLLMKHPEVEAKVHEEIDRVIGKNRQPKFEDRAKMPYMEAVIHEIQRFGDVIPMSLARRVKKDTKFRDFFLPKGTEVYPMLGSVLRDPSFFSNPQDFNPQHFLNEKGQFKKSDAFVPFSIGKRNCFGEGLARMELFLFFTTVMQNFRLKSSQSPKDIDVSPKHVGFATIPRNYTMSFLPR

[13] = Apparent volume of distribution in male Sprague-Dawley rat at 10 mg/kg, po administered as single dose by LC-MS analysis; format: ADME, organism-based; conditions: in vivo
CYP2C9 = CYP2C9 (Homo sapiens, UniProt P11712); assay: Inhibition of CYP2C9 in human liver microsomes at 10 uM using tolbutamide as substrate preincubated for 5 mins followed by NADPH generating system addition and measured after 120 mins by LC-MS/MS analysis relative to control; format: ADME; conditions: probe tolbutamide, time 125 min
[14] = Elimination half-life in male Sprague-Dawley rat at 10 mg/kg, iv administered as single dose by LC-MS analysis; format: ADME, organism-based; conditions: in vivo, read-out: beta t1/2 (converted)

Chain of CYP2E1 (P05181 whole entry): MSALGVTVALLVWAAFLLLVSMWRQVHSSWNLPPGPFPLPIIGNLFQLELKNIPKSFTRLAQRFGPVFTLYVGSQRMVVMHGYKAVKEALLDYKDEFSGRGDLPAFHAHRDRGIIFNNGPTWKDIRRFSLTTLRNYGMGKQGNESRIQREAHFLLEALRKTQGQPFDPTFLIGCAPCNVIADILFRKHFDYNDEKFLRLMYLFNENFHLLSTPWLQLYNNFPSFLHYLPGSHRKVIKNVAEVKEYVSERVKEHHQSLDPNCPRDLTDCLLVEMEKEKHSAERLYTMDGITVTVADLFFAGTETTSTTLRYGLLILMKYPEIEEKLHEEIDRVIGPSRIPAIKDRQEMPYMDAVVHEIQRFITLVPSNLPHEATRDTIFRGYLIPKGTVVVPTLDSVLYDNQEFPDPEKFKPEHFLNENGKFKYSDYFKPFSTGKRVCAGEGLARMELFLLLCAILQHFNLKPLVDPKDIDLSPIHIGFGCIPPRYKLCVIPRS
Chain of CYP2D6 (P10635 whole entry): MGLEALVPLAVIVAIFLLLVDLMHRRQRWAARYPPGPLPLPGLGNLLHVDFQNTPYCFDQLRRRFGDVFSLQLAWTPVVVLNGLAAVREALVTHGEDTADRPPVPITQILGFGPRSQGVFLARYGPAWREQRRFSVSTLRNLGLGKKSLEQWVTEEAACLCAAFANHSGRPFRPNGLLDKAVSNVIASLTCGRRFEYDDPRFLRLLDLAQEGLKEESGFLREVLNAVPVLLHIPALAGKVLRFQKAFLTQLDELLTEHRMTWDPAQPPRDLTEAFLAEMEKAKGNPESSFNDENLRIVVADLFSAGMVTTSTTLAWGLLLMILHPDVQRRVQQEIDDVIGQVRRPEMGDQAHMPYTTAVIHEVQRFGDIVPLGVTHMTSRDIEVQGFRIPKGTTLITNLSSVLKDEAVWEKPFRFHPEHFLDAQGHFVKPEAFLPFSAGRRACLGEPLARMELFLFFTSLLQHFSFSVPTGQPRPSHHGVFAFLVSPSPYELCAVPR
Chain of CYP3A4 (P08684 whole entry): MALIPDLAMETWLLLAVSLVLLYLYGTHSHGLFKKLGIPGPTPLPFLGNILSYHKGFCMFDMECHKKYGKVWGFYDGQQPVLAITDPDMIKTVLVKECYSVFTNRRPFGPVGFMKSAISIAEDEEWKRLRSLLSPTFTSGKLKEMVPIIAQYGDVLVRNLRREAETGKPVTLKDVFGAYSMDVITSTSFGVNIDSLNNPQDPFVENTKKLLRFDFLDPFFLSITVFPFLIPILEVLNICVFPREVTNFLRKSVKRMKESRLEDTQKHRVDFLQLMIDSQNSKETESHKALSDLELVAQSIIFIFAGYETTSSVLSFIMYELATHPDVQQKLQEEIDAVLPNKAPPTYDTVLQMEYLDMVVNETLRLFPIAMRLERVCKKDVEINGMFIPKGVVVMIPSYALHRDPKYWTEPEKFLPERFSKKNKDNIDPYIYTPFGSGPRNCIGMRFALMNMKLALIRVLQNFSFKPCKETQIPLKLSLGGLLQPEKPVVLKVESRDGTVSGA
Chain of CYP2C9 (P11712 whole entry): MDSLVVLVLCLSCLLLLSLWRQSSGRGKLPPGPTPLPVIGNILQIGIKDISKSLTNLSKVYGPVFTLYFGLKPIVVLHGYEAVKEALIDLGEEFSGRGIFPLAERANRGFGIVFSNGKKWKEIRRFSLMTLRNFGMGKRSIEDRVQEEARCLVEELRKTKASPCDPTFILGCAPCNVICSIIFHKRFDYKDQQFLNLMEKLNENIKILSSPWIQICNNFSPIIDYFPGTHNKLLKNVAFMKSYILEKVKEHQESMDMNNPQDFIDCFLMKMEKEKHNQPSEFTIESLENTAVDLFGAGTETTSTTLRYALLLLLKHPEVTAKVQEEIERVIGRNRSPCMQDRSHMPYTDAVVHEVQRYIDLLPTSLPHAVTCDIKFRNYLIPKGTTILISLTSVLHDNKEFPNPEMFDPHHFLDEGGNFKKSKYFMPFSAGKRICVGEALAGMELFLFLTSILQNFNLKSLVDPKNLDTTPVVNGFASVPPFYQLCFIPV
Chain of CYP2C19 (P33261 whole entry): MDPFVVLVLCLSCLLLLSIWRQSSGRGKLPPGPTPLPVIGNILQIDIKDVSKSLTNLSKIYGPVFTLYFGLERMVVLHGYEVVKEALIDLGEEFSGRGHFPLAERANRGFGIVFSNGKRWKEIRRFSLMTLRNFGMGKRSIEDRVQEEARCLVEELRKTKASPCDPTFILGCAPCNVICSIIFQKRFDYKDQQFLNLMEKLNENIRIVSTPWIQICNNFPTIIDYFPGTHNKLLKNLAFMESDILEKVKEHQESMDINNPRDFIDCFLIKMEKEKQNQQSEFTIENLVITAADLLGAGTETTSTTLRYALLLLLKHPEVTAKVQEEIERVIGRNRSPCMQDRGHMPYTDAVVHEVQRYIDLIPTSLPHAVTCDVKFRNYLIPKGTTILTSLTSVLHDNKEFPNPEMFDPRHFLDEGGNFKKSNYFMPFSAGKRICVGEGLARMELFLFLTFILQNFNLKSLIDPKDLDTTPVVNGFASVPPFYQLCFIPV

| Compound | Stability [2] [%] | Cmax [3] [ng/mL] | inhibition at 2 h, 10 µM (CYP2C19) [%] | half-life [4] [h] | CL/F [6] [mL/min/kg] | inhibition at 2 h, 10 µM (CYP2D6) [%] | inhibition at 2 h, 10 µM (CYP2E1) [%] | Stability [7] [%] | Tmax [8] [h] | half-life at 0.2 µM [9] [h] | inhibition at 2 h, 10 µM (CYP3A4) [%] | IC50 (Plasma) [µM] | inhibition at 2 h, 10 µM (CYP1A2) [%] | AUC(0-inf) [11] [ng·h/mL] | half-life at 0.2 µM [12] [h] | inhibition at 2 h, 10 µM (CYP2A6) [%] | Vz [13] [L/kg] | inhibition at 2 h, 10 µM (CYP2C9) [%] | also measured |
| --- | --- | --- | --- | --- | --- | --- | --- | --- | --- | --- | --- | --- | --- | --- | --- | --- | --- | --- | --- |
| CCOC(=O)c1c(C)nc(-c2cccc(C#N)c2)n1OCc1ccc(C#N)cc1 | 93 | 68 | 4.52 | 13.8 | 207 | 31.7 | 8.68 | 90 | 0.46 | 2.01 | 2.16 | 4.24 | 3.85 | 1140 | 0.385 | 7.69 | 190.56 | 0.024 | Activity [1]: Non-Toxic; Activity [5]: Non-Toxic; Drug metabolism [10]: Metabolite_Detected |
| Cc1nc(-c2cccc(C#N)c2)n(OCc2ccc(C#N)cc2)c1C(=O)O | 73 | 214 | 1.97 | 13.1 | 261 | 2.42 | 6.79 | 90 | 0.167 | > 2 | 7.4 | 3.88 | 0.11 | 809 | > 2 | 3.64 | 239.6 | 0.41 | half-life [14]: 4.89 h |
